Entries after “also recorded” stand apart in the source; their conditions may differ.
Target: T1, α face pockets of the 20S core proteasome (Homo sapiens, UniProt P25787+P60900)
T1 construct: purified from erythrocytes; purchased Boston Biochem, Inc. or Enzo Life Sciences, Inc; host or cells: human erythrocytes
Assay: Competition of TAT peptides with Rpt C-terminal tail peptides for α face pockets (ChT-L activity of 20S)
Format: biochemical
Conditions: for enhanced activation with Rpt tails: 1 μM Rpt peptide; for competition with Rpt tail peptides: 1 μM Rpt peptide added before the TAT peptide
Source text: As mentioned herein, the binding pockets on the α face accept “anchors” from natural protein ligands of the 20S core. […] The 10-residue Rpt-derived C-terminal “tail” peptides (“Rpt peptides”) can be used as competitors with the Rpt subunits or with small allosteric ligands. Importantly, the Rpt peptides interject between the subunits with their C-termini, whereas TAT peptides, according to the modeling, use their N-termini for this purpose. To test the specificity of interactions between TAT compounds and the α face, competition experiments were performed. The 20S core was challenged with selected TAT compounds after treatment with Rpt peptides. Peptides of Rpt2 ([…]; SEQ ID NO: 10), Rpt3 ([…]; SEQ ID NO: 11), Rpt5 ([…]; SEQ ID NO: 12) and Rpt6 ([…]; SEQ ID NO: 13) subunits were selected, docking in α3/α4, α1/α2, α5/α6 and α2/α3 pockets, respectively. Tails of Rpt2, 3, and 5 display the canonical HbYX motif, whereas the LeuTrpLys C-terminus of Rpt6 may be considered “pseudo-HbYX”, with a bulky Trp replacing Tyr. Results of the competition experiments are presented as radar plots in FIG. 15. […] This pocket also emerged as the major binding site for (1) and (8). However, these compounds likely weakly competed with the Rpt2 tail for binding to the α3/α4 pocket as well. The α3/α4 pocket seemed to be favored by (6). […] These complex patterns point at the importance of allosteric effects between the α face ligands, the gate and the catalytic chamber.
Determination of Proteasome Activity. Human housekeeping core (20S) proteasome purified from erythrocytes was purchased from Boston Biochem, Inc. (Cambridge, Mass.) or from Enzo Life Sciences, Inc. (Farmingdale, N.Y.). Multiple batches of the proteasomes were used and performed reproducibly. The stock proteasome was diluted to 0.2 mg/mL working solution in “dilution buffer” (50 mM Tris/HCl, pH 8, 20% glycerol). The following model peptide substrates, releasing fluorescent 7-amino-4-methylcoumarin (AMC) reporter group after cleavage, were used: succinyl-LeuLeuValTyr-AMC (SEQ ID NO: 14) (for the ChT-L peptidase; SucLLVY-AMC; Bachem Bioscience Inc., Philadelphia, Pa.), butoxycarbonyl-LeuArgArg-AMC (T-L; Bachem Bioscience Inc., Philadelphia, Pa.) and carbobenzoxy-LeuLeuGlu-AMC (PGPH; Enzo Life Sciences Inc., Farmingdale, N.Y.). The substrates were used at concentration of 50 μM (ChT-L) or 100 μM (T-L, PGPH). Free AMC (Sigma-Aldrich, St. Louis, Mo.) was used as the standard. The C-terminal peptides derived from Rpt2, Rpt3, Rpt5 and Rpt6 were synthesized (standard solid-phase peptide chemistry) and purified to at least 98% purity by GenScript (Piscataway, N.J.). The TAT peptides, Rpt peptides (except Rpt6) and the peptide substrates were dissolved in anhydrous dimethylsulfoxide (DMSO; Sigma-Aldrich, St. Louis, Mo.) and such stock solutions were stored at −20° C. The total concentration of DMSO in final reaction mixtures never exceeded 3% (vol/vol). The Trp (tryptophan)-containing Rpt6 peptide was dissolved in ultrapure water and stored at −20° C., protected from light. The reaction was carried out in 96-well plates, in 100 μL of reaction mixture that consisted of 45 mM Tris/HCl, pH 8, 100 mM KCl, 1 mM EDTA (reaction buffer) and a fluorogenic peptide substrate, to which 200 ng (nearly […]) of proteasome were added. The addition of KCl/EDTA (ethylenediaminetetraacetic acid) to reaction buffer assured latency of the core proteasome. The proteasome was preincubated with a substrate for 10 min at room temperature, then 1 μL of DMSO or a desired concentration of a TAT peptide in 1 μL of DMSO were added. After mixing, the plate was transferred to a Fluoroskan Ascent plate reader (Thermo Fisher Scientific Inc., Waltham, Mass.) for 1 h (37° C.), with fluorescence readouts once per minute. To test the competition with Rpt derived peptides, the Rpt peptide (1 μM) was added before the TAT peptide to the reaction mixture. […]

Structure (SMILES)	enhanced activation with Rpt tails	competition with Rpt tail peptides
N=C(N)NCCCC(NC(=O)CN)C(=O)NC(CCCCN)C(=O)NC(CCCCN)C(=O)NC(CCCNC(=N)N)C(=O)NC(CCCNC(=N)N)C(=O)NC(CCC(N)=O)C(=O)N1Cc2ccccc2C[C@H]1C(=O)N1C(C(=O)NC(CCCNC(N)N)C(=O)N2CCCC2C(=O)NC(CO)C(=O)O)CC2CCCCC21 (stereo partly shown) [(5), GRKKRRQ-TOD-RPS]	enhanced activation in the presence of one of Rpt tails, namely Rpt5 or Rpt6	the Rpt3 peptide (α1/α2 pocket) was its sole competitor; also recorded: competed fairly specifically with Rpt3 tail
NCCCCC(N)C(=O)NC(CCCCN)C(=O)NC(CCCCN)C(=O)Nc1cc(NC(=O)C(CCCCN)NC(=O)C(CCCCN)NC(=O)C(N)CCCCN)cc(C(=O)NC(CCCCN)C(=O)NC(CCCCN)C(=O)NC(CCCCN)C(=O)O)c1 (stereo not shown) [(8)]	enhanced activation in the presence of one of Rpt tails, namely Rpt5 or Rpt6	weakly negative score for the Rpt2 tail to the presumed major competitor Rpt3
